Data on 1 compound can be found in patent US12708627B2, “Combination therapy for VAV3 cancer” (Children's Hospital Medical Center, priority 2021, dated 2026).

Where “and” joins values, the source holds several entries; their conditions need not be identical. Equal values may be shown once. Read-outs that look alike come from different tables or passages of the source.

Test [1] has as its system wild-type p190-BCR-ABL1 leukemia. In words: Wild-type (VAV3+/+) p190-BCR-ABL1 leukemic mice, osmotic pump. Particulars: for leukemic progenitors in peripheral blood: vehicle 23.8%.
In test [2] the test system is wild-type murine leukemic cells expressing p190-BCR-ABL1. As to the kind of experiment: Colony formation (CFU-proB) of wild-type leukemic cells. Type of test: cell-based. Particulars: for number of colonies, mean±SD: vehicle 72±9.5. On the procedure:
(§1) Results are representative of two independent experiments.
(§2) Quantification against total VAV3 is shown. […] Experiments were performed in triplicates.
(§3) RAC1^Δ/Δ+RAC2^−/−-murine leukemic cells show severe reduction in RAC1 expression and are deficient in RAC2 (FIG. 10D). […] RAC1^Δ/Δ+RAC2^−/−-leukemic cells formed 3.8-times less colonies than wild-type leukemic cells.
(§4) CFU-proB Assay: B-cell lineage colony-forming units (CFU-proB) were quantified post 9-day culture of leukemic BM cells or sorted for p190-BCR-ABL1-expressing B-cell progenitors in M3134 methylcellulose (StemCell Technologies) supplemented with 30% FBS (for mouse B lymphoid colony forming cells; StemCell Technologies), 2 mM L-glutamine and 1% penicillin-streptomycin (Invitrogen), 100 μM β-mercaptoethanol (Fisher-Scientific), 1% BSA (Sigma-Aldrich), 20 ng/mL of recombinant mIL-7 and 100 ng/ml of recombinant mSCF (PeproTech).

Test [3] relates to pVAV3 (pTyr173), pVAV1 (pTyr174) in PDX B-ALL cells. As to the kind of experiment: pVAV3, pPAK1, pVAV1 immunoblot of PDX cells ex vivo. It counts as cell-based, human. Particulars: 1 μM, 30 min. The text has this: In general, pPAK1 followed the same trend.
The test system of another test is NALM-1 cells. As to the kind of experiment: Survival of NALM-1 cells. Particulars: read-out: EC50, cell survival. Type of test: cell-based, human. An excerpt:
Ba/F3 cells are bone marrow-derived, IL-3 dependent, murine pro-B cells widely used in studying the mechanism of leukemia initiation and progression and targeted therapy discovery^1. NALM-1 are human lymphoblastic cells that express p190-BCR-ABL1 but not Ikaros (IKZF1)^2. Applicant treated Ba/F3 cells transduced with retrovirus encoding either p190- or p210-BCR-ABL1 or Mieg3 empty vector^3 control as before.
MDA-MB-231 cells were maintained in IMEM (Invitrogen) supplemented with 10% FBS, 1% penicillin/streptomycin, and 1% amphotericin B. Ba/F3 cells were cultured in RPMI (GIBCO) supplemented with 10% FBS and IL-3 (10 ng/ml), NALM-1 cells were maintained in RPMI supplemented with 15% FBS. HEK293T cells were maintained with DMEM supplemented with 10% FBS and 1% penicillin/streptomycin. All cell lines were cultured at 37° C. in a 5% CO2 humidified incubator. Cell viability was assessed by trypan blue exclusion assay as previously described^4. Cytokines were from Peprotech.

Test [4] has as its system empty vector-transduced CD34+ human peripheral blood cells. As to the kind of experiment: Proliferation and survival of CD34+ cells transduced with empty vector. Type of test: cell-based. Particulars: IODVA1 1 or 3 μM.
For test [5], the target named is T1, VAV3 (Homo sapiens, UniProt Q9UKW4).
T1 sequence (Q9UKW4 1-847): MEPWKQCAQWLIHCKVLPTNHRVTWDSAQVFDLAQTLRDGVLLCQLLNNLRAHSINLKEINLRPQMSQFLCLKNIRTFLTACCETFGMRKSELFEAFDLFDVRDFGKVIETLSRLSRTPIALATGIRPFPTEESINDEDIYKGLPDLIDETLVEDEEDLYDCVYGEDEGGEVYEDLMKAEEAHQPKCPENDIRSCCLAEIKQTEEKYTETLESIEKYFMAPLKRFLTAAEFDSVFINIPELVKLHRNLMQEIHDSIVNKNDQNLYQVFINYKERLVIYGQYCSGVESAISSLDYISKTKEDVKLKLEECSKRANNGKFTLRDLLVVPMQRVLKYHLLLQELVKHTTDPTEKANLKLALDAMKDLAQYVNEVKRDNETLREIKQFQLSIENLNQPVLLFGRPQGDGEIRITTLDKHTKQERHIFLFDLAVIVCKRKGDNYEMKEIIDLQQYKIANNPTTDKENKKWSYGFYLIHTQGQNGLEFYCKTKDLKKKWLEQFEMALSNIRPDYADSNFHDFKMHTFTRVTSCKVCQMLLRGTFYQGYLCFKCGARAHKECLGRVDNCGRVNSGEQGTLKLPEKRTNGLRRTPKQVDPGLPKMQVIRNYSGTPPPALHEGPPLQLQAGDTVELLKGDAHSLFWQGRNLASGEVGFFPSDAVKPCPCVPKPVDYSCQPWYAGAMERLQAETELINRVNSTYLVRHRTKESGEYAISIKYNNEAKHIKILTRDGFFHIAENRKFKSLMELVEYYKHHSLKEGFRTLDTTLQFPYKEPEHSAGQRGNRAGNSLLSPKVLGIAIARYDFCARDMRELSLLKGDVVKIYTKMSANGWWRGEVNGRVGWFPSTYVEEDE
As to the kind of experiment: biochemical.

In test [6] the test system is VAV3. In words: Biotinylated-IODVA1 NeutrAvidin pull-down of VAV3. It counts as binding. Particulars: free IODVA1 1-10 μM. As for the experimental part: as §2
Cell lysates incubated with neutravidin beads alone served as background control. […] Next, the same experiment was repeated but with recombinant N-VAV3 lacking the C-terminus SRC-homology domains.

For another test, the system named is RAC. As to the kind of experiment: Active RAC pull-down with GST-PAK-GBD in p190-BCR-ABL1 Ba/F3 cells.
For test [7], the system named is RAC1Δ/Δ+RAC2−/− murine leukemic cells expressing p190-BCR-ABL1. In words: Colony formation (CFU-proB) of RAC-deficient leukemic cells. It counts as cell-based. Particulars: IODVA1 1 μM.
From the text: as §1, §3, §4

The next test has as its system Cdc42. As to the kind of experiment: Active Cdc42 pull-down with GST-PAK-GBD in p190-BCR-ABL1 Ba/F3 cells. Type of test: cell-based. Particulars: 3 μM. An excerpt:
GAPDH was used as loading control.

For `OC1(c2ccccc2)NC(=Nc2nc3ccccc3[nH]2)N=C1c1ccccn1` (stereo not drawn) [IODVA1], in [1] (IODVA1 1 mM, one pump, treatment day 21 to day 35), the survival stood at 60 days. For the same compound, the “leukemic progenitors in peripheral blood” value is 5% in test [1] (after one week of treatment) and 2% in test [1] (after two weeks of treatment). The “survival after treatment has ended” value in test [1] (treatment ended by day 35) is on record as 25 days. For the same compound, the “decrease of number of colonies, average” value in [2] (1 μM) is given as 2.4 fold; in test [2] (3 μM), 7 fold. Further, the entries for the “number of colonies, mean±SD” value in [2] (1 μM) and in test [2] (3 μM) were 30±9.2 and 12±2.5, respectively. Moreover, the “ability to form colonies” value in [2] (IODVA1 1 μM) is given as “significantly decreased”. In [3] (any of the patient samples tested), the pVAV1 levels result is reported as “unchanged”. The “decrease of levels of pVAV3” value in test [3] (IODVA1-sensitive PDX cells) is 90%. Further, the EC50 in the test with NALM-1 cells (Homo sapiens) was determined as 680 nM; in the test on NALM-1 cells, 677 nM. In addition, in [4], the “survival by trypan blue exclusion” value is listed as “not affected”. Besides, the Kd on VAV3 [5] is 512 nM and 270 to 980 nM. Also, the “competition of VAV3 binding to immobilized biotinylated IODVA1” value in the test with VAV3 [6] is “able to compete VAV3 binding to the biotinylated immobilized IODVA1 in a dose-dependent manner”. Besides, the “time to substantial decrease of active RAC” value in the test on RAC (3 μM) is 10 to 15 min. Also, in the test with RAC (read-out: IC50, levels of active RAC, 0.1-10 μM for 1 h), the IC50 turned out to be 1000 nM. Also, the number of colonies entry in test [7] was “did not alter”. Besides, the “decrease of levels of active Cdc42” value in the test with Cdc42 (15 min) came to 60%. Besides, in the test on Cdc42 (30 min incubation), the “inhibition of active Cdc42” value is on record as “totally inhibits”.
